Each structure is given as a SMILES string.

This experiment has as its target T1, AR (Homo sapiens, UniProt P10275).
T1 construct: The VCaP cells were transfected with MMTV-LUC for 24 hours; endogenous in cells; host or cells: VCaP
T1 sequence (P10275 1-920): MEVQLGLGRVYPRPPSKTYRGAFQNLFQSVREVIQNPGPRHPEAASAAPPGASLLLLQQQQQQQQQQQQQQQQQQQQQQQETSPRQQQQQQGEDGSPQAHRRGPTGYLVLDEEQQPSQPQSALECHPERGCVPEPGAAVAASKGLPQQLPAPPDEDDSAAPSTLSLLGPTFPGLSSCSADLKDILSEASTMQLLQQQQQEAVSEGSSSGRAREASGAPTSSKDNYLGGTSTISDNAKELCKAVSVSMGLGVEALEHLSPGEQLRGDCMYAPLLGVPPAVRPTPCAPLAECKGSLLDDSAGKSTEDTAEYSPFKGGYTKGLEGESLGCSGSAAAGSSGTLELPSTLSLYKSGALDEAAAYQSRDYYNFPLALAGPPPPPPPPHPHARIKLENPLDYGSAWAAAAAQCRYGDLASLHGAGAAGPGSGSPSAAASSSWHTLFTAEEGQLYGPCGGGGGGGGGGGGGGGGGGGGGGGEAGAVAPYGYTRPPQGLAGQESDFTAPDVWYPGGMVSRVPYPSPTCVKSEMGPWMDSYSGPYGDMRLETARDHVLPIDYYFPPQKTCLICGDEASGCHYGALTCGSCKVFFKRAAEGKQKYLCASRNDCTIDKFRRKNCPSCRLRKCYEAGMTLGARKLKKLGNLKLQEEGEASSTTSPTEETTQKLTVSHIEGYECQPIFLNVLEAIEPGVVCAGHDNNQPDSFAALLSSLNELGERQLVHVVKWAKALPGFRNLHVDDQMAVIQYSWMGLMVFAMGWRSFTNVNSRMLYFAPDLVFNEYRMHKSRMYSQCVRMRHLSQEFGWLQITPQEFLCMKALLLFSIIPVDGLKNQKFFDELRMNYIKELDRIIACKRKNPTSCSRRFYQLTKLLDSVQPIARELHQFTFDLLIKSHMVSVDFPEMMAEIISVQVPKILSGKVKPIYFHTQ
It is filed as cell-based. The following applies: VCaP cells, 24 hours. As for the experimental part: RNA expression level was analyzed by qRT-PCR and protein expression level was analyzed by Western blot. […] (I) Representative immunofluorescence microscopic images of VCaP cells for checking the subcellular localization of AR.
To evaluate the HDAC6 inhibition ability of Zeta55 in VCaP cells, the acetylation status of α-tubulin protein (a HDAC6 substrate) was assessed using western blot. […] We assessed the protein level of AR in VCaP cells.
The whole-cell extracts were prepared in lysis buffer with a protease inhibitor cocktail (Bimake), while the xenograft tissue extracts were prepared in 0.5% Nonidet P 40 Substitute solution (Biosharp) with cocktail protease inhibitor (Bimake). Each sample containing 30 μg of total protein was loaded onto 10% SDS-PAGE and electrotransferred onto polyvinylidene fluoride membranes. The membranes were blocked with 5% skimmed milk in PBST at room temperature for 2 hours and incubated with primary antibodies at 4° C overnight. After the membranes were washed with PBST three times, they were incubated with horseradish peroxidase-conjugated anti-rabbit or anti-mouse secondary antibody at room temperature for 1 hour. Chemiluminescent detection was performed with WesternBright ECL (Advansta). The immunoblots were visualized using the FluorChem FC3 system (ProteinSimple).

With `N#Cc1ccc(N2C(=O)C3(CCC3)N(c3ccc(C(=O)NO)c(F)c3)C2=S)cc1C(F)(F)F` [Zeta55], the AR protein level entry was “decreased AR protein level in a dose-dependent manner”.
